Where two headings read alike, the source gives them in different places.
Assays:
[1] = assay type: physicochemical; conditions: for logK' (H2O/Cl−): I = 0.2 M KNO3, 25.0 °C
Experimental: Spectral changes in the UV-vis spectra (Figure 8c) reveal two transformation processes. […] As chloride ions can efficiently coordinate to these types of half-sandwich organometallic complexes, the water/chloride co-ligand exchange process was also studied by UV-vis spectrophotometry (at pH 7.4 or 6.0), and logK' (H2O/Cl^-) exchange constants were determined (Table 3) based on the spectral changes upon increasing the chloride concentration in the solution. For the RhCp* complex, a higher constant, namely stronger chloride ion affinity, was obtained. […] An Agilent Cary 8454 diode array spectrophotometer (Santa Clara, CA, USA) was used to obtain UV-vis spectra in the wavelength range 200-1000 nm, while spectra were recorded for the Fe(II)-containing samples using an Avantes (Avantes B.V., Apeldoorn, The Nederlands) AvaSpec-ULS2048CL-EVO spectrometer with an AvaLight-DHc light source and […] transmission dip probe. The titrations for the Fe(II)-containing samples were performed in a laboratory glove box (GP(Campus), Jacomex) (O2 content ≤ 1 ppm). The path length (l) was 1 cm in most cases (the actual l is always indicated in the legends of the figures). […] Spectra were always background and baseline corrected. The computer program HypSpec was used to obtain stability constants. Hydrolysis constants of the Fe(III), Fe(II), RuCym, and RhCp* species were included in the speciation models (see Table S4 with the data taken from References).

[2] = Stability of the complexes in blood serum (UV-vis); assay type: in vitro ADME, human; conditions: blood serum four-time diluted with PBS'; after 24 h
From the text: The stability of the RhCp* and RuCym complexes of HQNO2-L-Pro was also monitored in Roswell Park Memorial Institute (RPMI) medium used for the in vitro cell studies (in the case of Colo cells), and in blood serum using UV-vis and ^1H NMR spectroscopy. […] Despite these changes, the dissociation of the complexes is not likely as the liberation of the unbound ligand was not observed; thus, the complexes most probably form ternary complexes with the components of the serum or the medium. In order to further study the reactivity of these complexes with bioligands, their interaction with human serum albumin (HSA) and selected oligopeptides (also used as binding models of HSA) was assayed.
Stock and sample solutions were prepared using Milli-Q water. […] Their concentrations were determined by complexometry via the EDTA complexes. […] The concentration of the Fe(II) stock solution was determined by permanganometric titrations under acidic conditions. […] Residual citrate content of HSA was removed by repeated ultrafiltration of the protein stock solution, and its concentration was calculated from its UV absorption: λ280nm (HSA) = 36,850 M^−1 cm^−1 [51]. […]

[3] = target: T1, HSA site II (Homo sapiens, UniProt P02768); assay: HSA dansylglycine (DG) site marker displacement by fluorometry (site II); assay type: binding; conditions: 1 µM HSA, 1 µM DG, pH 7.4 (PBS')
T1 construct: purchased Sigma-Aldrich (Darmstadt, Germany) A8763
Experimental: Therefore, tryptophan (Trp-214) quenching and dansylglycine (DG) site marker displacement experiments were conducted by fluorometry to obtain information about the binding at sites I and II, respectively, using the same approach reported in our former paper. A representative spectral series is shown in Figure 9a for the Trp-214 quenching experiment, upon the addition of the RhCp*–HQNO2-L-Pro complex and the computed binding constants (logKQ’ and logKDG’) which can be found in Figure 9b, in addition to the corresponding data for the HQCl-L-Pro complexes.
A Fluoromax (Horiba Jobin Yvon, Longjumeau, France) spectrofluorometer was utilized for fluorescence measurements using a 1 cm × 1 cm quartz cuvette. Samples contained 1 µM HSA or DG and 1 µM HSA at pH 7.4 (PBS’), and the complex concentration was varied between 0 and 53 µM. The measurements were carried out on individual samples. Excitation wavelengths were 295 nm for Trp-214 quenching, and 335 nm for the DG displacement studies, respectively. The calculated conditional stability constants for HSA–complex species were obtained using the computer program HypSpec. Calculations always were based on data obtained from at least two independent measurements. Self-absorbance and inner filter effect had to be taken into account, and corrections were made as was described in our former works.

T1 sequence (P02768 25-609): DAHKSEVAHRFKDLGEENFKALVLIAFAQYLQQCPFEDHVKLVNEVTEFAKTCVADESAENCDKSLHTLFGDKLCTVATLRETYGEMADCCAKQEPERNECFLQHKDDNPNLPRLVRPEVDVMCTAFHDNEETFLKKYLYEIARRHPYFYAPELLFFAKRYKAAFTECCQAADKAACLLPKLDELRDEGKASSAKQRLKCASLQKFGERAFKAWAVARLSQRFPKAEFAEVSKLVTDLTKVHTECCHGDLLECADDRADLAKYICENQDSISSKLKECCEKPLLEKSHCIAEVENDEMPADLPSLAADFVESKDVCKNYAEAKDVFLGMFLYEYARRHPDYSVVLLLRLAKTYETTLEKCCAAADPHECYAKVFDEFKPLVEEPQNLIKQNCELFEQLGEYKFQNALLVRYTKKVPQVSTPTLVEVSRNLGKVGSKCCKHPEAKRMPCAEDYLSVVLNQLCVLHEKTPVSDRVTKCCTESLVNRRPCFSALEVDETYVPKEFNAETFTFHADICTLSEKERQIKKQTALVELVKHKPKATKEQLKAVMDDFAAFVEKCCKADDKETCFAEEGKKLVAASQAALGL

Cc1ccc(C(C)C)cc1.O=C(O)[C@@H]1CCC[NH+]1Cc1cc([N+](=O)[O-])c2ccc[n+]3c2c1[O][Ru-]3[Cl].[Cl-] [RuCym-HQNO2-L-Pro, [RuCym(HQNO2-L-Pro)Cl]Cl]
pKa (1) [1]: 8.55 ± 0.03
pKa (2) [1]: 10.21 ± 0.03
logK' (H2O/Cl−) ([1]; pH 6.0): 1.47 ± 0.01
changes of the charge-transfer bands (400–500 nm) on incubation in serum [2]: minor changes

CC1=C(C)[C](C)([Rh]([Cl])[O]c2c(C[NH+]3CCC[C@H]3C(=O)O)cc([N+](=O)[O-])c3cccnc23)C(C)=C1C.[Cl-] [RhCp*-HQNO2-L-Pro, [RhCp*(HQNO2-L-Pro)Cl]Cl]
pKa (1) [1]: 9.33 ± 0.03
pKa (2) [1]: 10.34 ± 0.03
logK' (H2O/Cl−) ([1]; pH 7.4): 2.07 ± 0.03
changes of the charge-transfer bands (400–500 nm) on incubation in serum [2]: minor changes
DG marker displacement constant logKDG' [3]: 5.6

O=C(O)[C@@H]1CCCN1Cc1cc([N+](=O)[O-])c2cccnc2c1O [HQNO2-L-Pro, (2S)-1-((8-hydroxy-5-nitroquinolin-7-yl)methyl)pyrrolidin-1-ium-2-carboxylate]
Kd ([3]; read-out: DG marker displacement constant logKDG' (converted)): 33.9 µM

From article PMC9820345, “Metal Complexes of a 5-Nitro-8-Hydroxyquinoline-Proline Hybrid with Enhanced Water Solubility Targeting Multidrug Resistant Cancer Cells” (International Journal of Molecular Sciences, 2022)
